Results published in PubChem BioAssay (NCI).
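Where inhibition never reached the appropriate level, the endpoint shown equals the highest concentration tested. Otherwise, values were interpolated linearly from a five-concentration, 48-hour dose response in 96-well plates. The concentration for full growth arrest is given as TGI.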

How the values were obtained:
Assay in all cases: NCI tumour cell line growth inhibition, 48 h
[1] = test system: 786-0 renal
[2] = test system: A498 renal
[3] = test system: A549 NSCLC
[4] = test system: ACHN renal
[5] = test system: BT-549 breast
[6] = test system: CAKI-1 renal
[7] = test system: CCRF-CEM leukemia
[8] = test system: COLO 205 colon
[9] = test system: DU-145 prostate
[10] = test system: EKVX NSCLC
[11] = test system: HCC-2998 colon
[12] = test system: HCT-116 colon
[13] = test system: HCT-15 colon
[14] = test system: HL-60(TB) leukemia
[15] = test system: HOP-62 NSCLC
[16] = test system: HOP-92 NSCLC
[17] = test system: HS 578T breast
[18] = test system: HT29 colon
[19] = test system: IGROV1 ovarian
[20] = test system: K-562 leukemia
[21] = test system: KM12 colon
[22] = test system: LOX IMVI melanoma
[23] = test system: M14 melanoma
[24] = test system: MALME-3M melanoma
[25] = test system: MCF7 breast
[26] = test system: MDA-MB-231 breast
[27] = test system: MDA-MB-435
[28] = test system: MDA-N
[29] = test system: MOLT-4 leukemia
[30] = test system: NCI-H226 lung
[31] = test system: NCI-H23 lung
[32] = test system: NCI-H460 lung
[33] = test system: NCI-H522 lung
[34] = test system: NCI/ADR-RES ovarian
[35] = test system: OVCAR-3 ovarian
[36] = test system: OVCAR-4 ovarian
[37] = test system: OVCAR-5 ovarian
[38] = test system: OVCAR-8 ovarian
[39] = test system: PC-3 prostate
[40] = test system: RPMI-8226 leukemia
[41] = test system: RXF 393 renal
[42] = test system: SF-268 CNS
[43] = test system: SF-295 CNS
[44] = test system: SF-539 CNS
[45] = test system: SK-MEL-2 melanoma
[46] = test system: SK-MEL-28 melanoma
[47] = test system: SK-MEL-5 melanoma
[48] = test system: SK-OV-3 ovarian
[49] = test system: SN12C renal
[50] = test system: SNB-19 CNS
[51] = test system: SNB-75 CNS
[52] = test system: SR leukemia
[53] = test system: SW-620 colon
[54] = test system: T-47D breast
[55] = test system: TK-10 renal
[56] = test system: U251 CNS
[57] = test system: UACC-257 melanoma
[58] = test system: UACC-62 melanoma
[59] = test system: UO-31 renal

CC(C)OC(=O)c1ccc(CCc2cc(O)c(Br)cc2O)cc1
TGI [1]: 25.4 µM | TGI [2]: 41.8 µM | TGI [3]: 44.8 µM | TGI [4]: 31.9 µM | TGI [5]: 30 µM | TGI [6]: 25 µM | TGI [7]: 14.3 µM | TGI [8]: 28.7 µM | TGI [9]: 28.6 µM | TGI [10]: 29.4 µM | TGI [11]: 29.6 µM | TGI [12]: 25.3 µM | TGI [13]: 14 µM | TGI [14]: 38.9 µM | TGI [15]: 24.7 µM | TGI [16]: 35.2 µM | TGI [17]: 42.1 µM | TGI [18]: 37.4 µM | TGI [19]: 23.1 µM | TGI [20]: > 58.9 µM | TGI [21]: 18.1 µM | TGI [22]: 20.8 µM | TGI [23]: 29.9 µM | TGI [24]: 31.1 µM | TGI [25]: 29.4 µM | TGI [26]: 26.7 µM | TGI [27]: 20.8 µM | TGI [28]: 24 µM | TGI [29]: 52.1 µM | TGI [30]: 39.8 µM | TGI [31]: 22.8 µM | TGI [32]: 34.5 µM | TGI [33]: 23.8 µM | TGI [34]: 25.5 µM | TGI [35]: 19.5 µM | TGI [36]: 5.54 µM | TGI [37]: 31.8 µM | TGI [38]: 29.5 µM | TGI [39]: 19.2 µM | TGI [40]: 8.18 µM | TGI [41]: 28.3 µM | TGI [42]: 25.6 µM | TGI [43]: 32.3 µM | TGI [44]: 15.7 µM | TGI [45]: 26.7 µM | TGI [46]: 26.9 µM | TGI [47]: 28.3 µM | TGI [48]: 35.6 µM | TGI [49]: 28.9 µM | TGI [50]: 27.9 µM | TGI [51]: 46.5 µM | TGI [52]: 64.9 µM | TGI [53]: 22 µM | TGI [54]: 53.2 µM | TGI [55]: 30.6 µM | TGI [56]: 17.5 µM | TGI [57]: 26.4 µM | TGI [58]: 34.4 µM | TGI [59]: 10.2 µM

Cc1ccc(C(N)=Nc2ccccc2)cc1
TGI [1]: > 100 µM | TGI [2]: > 100 µM | TGI [3]: > 100 µM | TGI [4]: > 100 µM | TGI [5]: > 100 µM | TGI [6]: > 100 µM | TGI [7]: > 100 µM | TGI [8]: 42.2 µM | TGI [9]: > 100 µM | TGI [10]: > 100 µM | TGI [11]: 33.7 µM | TGI [12]: > 100 µM | TGI [13]: > 100 µM | TGI [14]: > 100 µM | TGI [15]: > 100 µM | TGI [16]: > 100 µM | TGI [17]: > 100 µM | TGI [18]: > 100 µM | TGI [19]: > 100 µM | TGI [20]: > 100 µM | TGI [21]: > 100 µM | TGI [22]: > 100 µM | TGI [23]: > 100 µM | TGI [24]: > 100 µM | TGI [25]: > 100 µM | TGI [26]: > 100 µM | TGI [27]: > 100 µM | TGI [28]: > 100 µM | TGI [29]: > 100 µM | TGI [30]: > 100 µM | TGI [31]: > 100 µM | TGI [32]: > 100 µM | TGI [33]: > 100 µM | TGI [34]: > 100 µM | TGI [35]: > 100 µM | TGI [36]: > 100 µM | TGI [37]: > 100 µM | TGI [38]: > 100 µM | TGI [39]: > 100 µM | TGI [40]: > 100 µM | TGI [41]: > 100 µM | TGI [42]: > 100 µM | TGI [43]: > 100 µM | TGI [44]: > 100 µM | TGI [45]: > 100 µM | TGI [46]: > 100 µM | TGI [47]: > 100 µM | TGI [48]: > 100 µM | TGI [49]: > 100 µM | TGI [50]: > 100 µM | TGI [51]: > 100 µM | TGI [52]: > 100 µM | TGI [53]: > 100 µM | TGI [54]: > 100 µM | TGI [55]: > 100 µM | TGI [56]: > 100 µM | TGI [57]: > 100 µM | TGI [58]: > 100 µM | TGI [59]: > 100 µM
